Entries after “also recorded” stand apart in the source; their conditions may differ.
Experiments:
[1] = system: Human astrocyte cell line (SVG); assay: VEGF and crystallin immunostaining in cultured astrocytes exposed to 3-nitropropionic acid; type: cell-based; conditions: 10 μM 3-NP
Experimental: Human astrocyte cell line (SVG) was treated with 10 μM 3-NP, and cells were harvested for immunostaining with antibodies to VEGF and crystallins after 6, 12, and 24 hours. […] Fluorescence with both of the antibodies is increased after 12 hours of exposure to 3-NP in culture. […] Nuclei were counterstained with DAPI.
It has been shown that astrocytes are sensitive to hypoxia, which induces them to release VEGF (Chow et al., 2001; Sandercoe et al., 2003). To determine if astrocytes also express β- and γ-crystallins in response to hypoxia, 3-nitropropionic acid, an irreversible inhibitor of mitochondrial succinate dehydrogenase activity was used (Cavaliere et al., Neurochem Int 38:189-197, 2001). It can be considered a model substance to study hypoxic neuronal damage (Riepe et al., Neurosci Lett 211:9-12, 1996).
The SVG cell line used in this study was derived from human fetal astrocytes transformed with SV40 large T antigen (Major et al., J Biol Chem 278:13512-13519, 1985; Tornatore et al., Cell Transplant 5:145-163, 1996). Cultures of the human fetal astrocyte cell line (SVG) were maintained in Dulbecco's modified Eagle's medium with 2 mM L-glutamine, 10% fetal bovine serum, and streptomycin penicillin-fungizone solutions. Cells grown in 60-mm dishes were treated with 10 μM 3-nitropropionic acid (3NP) for 6, 12, and 24 hours at 37° C. and then fixed with paraformaldehyde (4%) for 15 minutes and blocked with 3% BSA at 4° C. overnight. The fixed cells were processed following standard techniques for immunofluorescence using VEGF and crystallin antibodies as indicated earlier.

[2] = system: HUVEC (Human umbilical vein endothelial cells); assay: Three-dimensional tube formation assay of HUVEC on Matrigel; type: cell-based; conditions: HUVEC on Matrigel treated with purified proteins (crystallins 0.5 μg/ml), vs controls
Text: In order to better understand the functional role of β/γ-crystallins in vascular remodeling, HUVEC (Human umbilical vein endothelial cells) were established in culture. HUVEC differentiation into tube-like structures in three dimensional Matrigel cultures has been commonly used as a model system to studying angiogenesis (Edelman et al. Exp. Eye Res. 80(2): 249-58, 2005; Xin et al. J. Biol. Chem. 274(13): 9116-21, 1999). After plating HUVEC onto Matrigel, the cells differentiated to form tubes and a capillary-like network at the minimum seeding density of 5×10^3 cells/well (FIGS. 20A-20F). These differentiated cells form tubes and express crystallins (FIGS. 21A and 21B).
The effect of β/γ crystallins and VEGF on HUVEC tube formation and regression was examined. VEGF protein used in this study was purchased from R&D Systems (Minneapolis, Minn.) and the polyclonal antibody was from Santa Cruz Biotechnology (Santa Cruz, Calif.). To prepare the crystallin proteins, lenses dissected from bovine eyes were homogenized in 7 volumes of 0.05M Tris buffer, pH 7.4 containing 0.1M KCl, 10 mM 2-mercaptoethanol and 0.02% NaN3. […] Fractions were collected and peaks analyzed by SDS-PAGE. […]
The cells were exposed to 0.2 μg/ml to 2 μg/ml of crystallin proteins, with a maximum effect at 0.5 μg/ml with negligible cell death as determined by trypan-blue exclusion. […]

[3] = system: Human Retinal Endothelial Cells (HREC); assay: Matrigel tube formation in cultured human retinal endothelial cells; type: cell-based; conditions: exogenously applied protein, Matrigel pre-coated plates, VEGF omitted from media supplement
Experimental: HREC were cultured in EGM2MV media according to the manufacturer's protocol either in the absence (FIG. 25A), or presence (FIG. 25B) of pre-coated Matrigel matrix (Cambrex). (4× magnification)
FIG. 28 is a graph showing the effect of Exogenous γ-crystallins, VEGF, and PEDF on Tube Length in Cultured Human Retinal Endothelial Cells (HREC): HREC grown on Matrigel-coated tissue culture plates in EGM2MV media with VEGF omitted from the media supplement. Cells were treated with BSA (control), 0.2 μg/ml VEGF, 0.6 μg/ml VEGF, concentrations of […] ranging from 0.5 μg/ml to 1.0 μg/ml, or 0.2 μg/ml PEDF. Average tube length was calculated after measuring all of the tubes formed in three separate optical fields from 7 individual culture dishes.
As reported above, a functionally significant effect of β/γ crystallins on vascular remodeling the effect of β/γ crystallins was established on human umbilical vein endothelial cells (HUVEC) in culture. Because the behavior of vascular endothelial cells varies according to their source and the resident tissue environment, the effect of β/γ crystallins on cultured human retinal endothelial cells (HREC) was subsequently analyzed. […] FIG. 28 quantifies these effects.

[4] = system: Human Retinal Endothelial Cells (HREC); conditions: relatively high dose tested (0.2 μg/ml PEDF); cited from earlier work

O=C(O)CC[N+](=O)[O-] [3-NP, 3-nitropropionic acid]
VEGF expression (immunostaining) ([1]; 6 hours): induction; also recorded: distinct cytoplasmic staining
β- and γ-crystallin expression (immunostaining) ([1]; 6 hours): induction; also recorded: distinct cytoplasmic staining
VEGF antibody fluorescence ([1]; 12 hours): increased
γ-crystallin antibody fluorescence ([1]; 12 hours): increased
cell death ([1]; 24 hours): most of the cells have died

VEGF
tube length (tube processes) [2]: longer tubes
HREC vessel-like tube formation [3]: enhanced

B1: PEDF: PEDF added at 0.2 μg/ml to HREC cultures (protein, UniProt P36955 20-418, looked up)
Pigment epithelium-derived …: QNPASPPEEGSPDPDSTGALVEEEDPFFKVPVNKLAAAVSNFGYDLYRVRSSTSPTTNVLLSPLSVATALSALSLGAEQRTESIIHRALYYDLISSPDIHGTYKELLDTVTAPQKNLKSASRIVFEKKLRIKSSFVAPLEKSYGTRPRVLTGNPRLDLQEINNWVQAQMKGKLARSTKEIPDEISILLLGVAHFKGQWVTKFDSRKTSLEDFYLDEERTVRVPMMSDPKAVLRYGLDSDLSCKIAQLPLTGSMSIIFFLPLKVTQNLTLIEESLTSEFIHDIDRELKTVQAVLTVPKLKLSYEGEVTKSLQEMKLQSLFDSPDFSKITGKPIKLTQVEHRAGFEWNEDGAGTTPSPGLQPAHLTFPLDYHLNQPFIFVLRDTDTGALLFIGKILDPRGP
tube formation [4]: stimulate tube formation

From US20100004168A1, “Use of Crystallin For The Modulation of Angiogenesis” (The Johns Hopkins University, priority 2006, published 2010)
